# Experimental data published in the METLIN SMRT retention time set (Domingo-Almenara et al. 2019).
# Assay: gradient 5% acetonitrile 3 min, to 50% in 2 min, to 85% in 15 min, held 3 min, 100 µL/min
# Details: column: Zorbax Extend-C18 2.1 x 50 mm; eluents: water / acetonitrile, 0.1% formic acid
# In short: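 Each retention time is based on an adduct peak selected computationally and verified by manual inspection. Measurements used HPLC–quadrupole time-of-flight mass spectrometry in positive and negative ionization mode on mixtures of ~100 pure standards. Chromatography ran on a Zorbax Extend-C18 column (2.1 × 50 mm, 1.8 μm) at 100 μL/min with water and acetonitrile, each containing 0.1% formic acid, and dead and dwell volumes of 40 μL and 900 μL.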
row,Structure (SMILES),RP-LC retention time [s]
1,CN(C)c1ccc(CNC(=O)C2CCN(S(=O)(=O)c3ccc4c(c3)NC(=O)CO4)CC2)cc1,598
2,CCc1cccc(NC(=O)N2c3ccccc3CC2c2nc(CCOC)no2)c1 (configuration not stated),1060
3,Cn1ccc2c(cc(C(=O)NCc3ccc(C(F)(F)F)cc3)n2C)c1=O,754
4,CN1C(=O)CCc2cc(NS(=O)(=O)c3cccc4nsnc34)ccc21,716
5,CC(C)c1ccc(N2C(=O)CN(S(C)(=O)=O)CC2(C)C(=O)NCc2ccccc2)cc1 (configuration not stated),860
6,Cc1cccc(-n2c(=O)c3c(cc(C)n3C)n(CC(=O)Nc3cc(Cl)ccc3C)c2=O)c1,960
7,COC(=O)c1cc2n(n1)CC(C)(C(=O)NC1CCCCC1)N(c1ccccc1F)C2=O (configuration not stated),853
8,CCCCN(CC)S(=O)(=O)c1ccc(C(=O)Nc2nc3c(s2)COc2ccccc2-3)cc1,1230
9,Cc1ccsc1-c1nnc(CC(=O)N2CCN(C3CCCCC3)CC2)o1,616
10,Cc1ccc(NC(=O)C2CCN(S(C)(=O)=O)c3ccccc3O2)cc1 (configuration not stated),892
11,O=C(CCn1cnc2cc(-c3noc(-c4cccc(F)c4)n3)ccc21)N1CCCC1,765
12,Cc1sc(C)c(S(=O)(=O)NCc2ccco2)c1-c1cc(C(F)(F)F)on1,1060
13,CC1(C)CC(=O)c2cn(-c3ccccc3)c(=O)c(C(=O)Nc3cc(F)ccc3F)c2C1,1030
14,COCCCNC(=O)N1CC(n2cc(COc3ccc(F)cc3)nn2)C1,691
15,O=C(NCCN1CCCCCC1)C1CCN(c2cnc(N3CCCC3)nc2)CC1,569
16,Cc1ccc(CN(CC(=O)N2CCNCC2)C(=O)c2sccc2C)cc1,720
17,CCn1cc(S(=O)(=O)Nc2cccc(OC)c2)c2cccnc21,794
18,CCOC(=O)c1c(S(=O)(=O)N2CCC(C(=O)NCc3ccc(C)cc3)CC2)c(C)n(CC)c1C,895
19,O=C(NCc1ccccc1)C1=Cc2ccccc2OC=C1,933
20,O=C(NCCc1cccs1)C1CCN(c2cnn(Cc3ccccc3)c(=O)c2)CC1,765
21,Cn1c(C2CCN(C(=O)Nc3ccc(Br)cc3F)CC2)cc(=O)n2nccc12,694
22,Cc1ccc(CNC(=O)C(C)n2nc(C)c3nn(-c4ccccc4)c(C)c3c2=O)o1 (configuration not stated),807
23,Cc1nc(Nc2ccccn2)sc1C(=O)N1CCc2ccccc2C1,829

row,Structure (SMILES),RP-LC retention time [s]
1,Cn1c(=O)sc2cc(S(=O)(=O)N3CCC(C(=O)NC4CCCCCCC4)CC3)ccc21,931
2,O=C(CSc1nnc(COc2ccccc2)o1)NCc1ccco1,753
3,COC(=O)c1cnc2nc(C)ccc2c1Nc1ccc(S(N)(=O)=O)cc1,586
4,COc1ccc(S(=O)(=O)N2CCC(c3cc4n(n3)CCCN(C)C4=O)CC2)cc1,720
5,CCC(=O)NCc1nc2c(n1CC)CN(C(=O)c1cccc(Br)c1)CC2,596
6,COc1ccc(-c2noc(C3CC(=O)N(c4ccc(C)c(C)c4)C3)n2)cc1OC (configuration not stated),928
7,Cc1c(Cl)cccc1NC(=O)CCc1ccc2nc[nH]c2c1,614
8,NC(=O)C1CCN(c2oc(-c3ccco3)nc2S(=O)(=O)c2ccccc2)CC1,652
9,Cc1ccc(CNC(=O)C2CCN(C(=O)C3Sc4ccccc4NC3=O)CC2)cc1 (configuration not stated),818
10,CCN(CC)c1cc(CNC(=O)Nc2cc(OC)cc(OC)c2)ccn1,620
11,CCn1c(=O)c(C(=O)NCc2cc(F)ccc2F)nc2cccnc21,802
12,CC1(C(=O)NCc2ccc(Cl)cc2)CN(S(C)(=O)=O)CC(=O)N1c1ccc(F)cc1 (configuration not stated),800
13,O=C(Cc1csc(Nc2ccc(Cl)cn2)n1)N1CCCc2ccccc21,919
14,Cc1cccn2cc(-c3ccc(NS(=O)(=O)c4ccc(Cl)cc4)cc3)nc12,701
15,COCCn1c(CCCC(=O)NCc2ccc3c(c2)OCO3)nc2cccnc21,632
16,COCCc1noc(-c2ccc(=O)n(CC(=O)Nc3ccccc3)c2)n1,695
17,CC1(C)CC(=O)c2cn(-c3ccccc3)c(=O)c(C(=O)N3CCN(C4CCCCC4)CC3)c2C1,586
18,Cc1ccc(-c2nnc(-c3ccccc3)o2)cc1S(=O)(=O)N1CCOCC1,922
19,COC(=O)c1sccc1NC(=O)N1CCc2c([nH]c3ccccc23)C1c1ccc(F)cc1 (configuration not stated),1300
20,CS(=O)(=O)Nc1ccc(C2(C(=O)NCc3ccccn3)CCCCC2)cc1,620
21,COCc1nc(C2CCN(S(=O)(=O)Cc3ccccc3)C2)no1 (configuration not stated),795
22,CC1CCC2(CC1)NC(=O)N(CC(=O)NCc1ccccc1Cl)C2=O (configuration not stated),790
23,CN(C)C[C@@H]1CN(S(C)(=O)=O)C[C@H]1NC(=O)COc1ccc(Cl)cc1,629

row,Structure (SMILES),RP-LC retention time [s]
1,O=C(NCc1noc(C2CCCC2)n1)c1ccc(F)cc1,798
2,Cc1nc2cc3c(cc2n1CC(=O)NCCc1ccc(F)cc1)OCCO3,646
3,O=C(COc1cccc(Br)c1)Nc1nc(-c2ccccc2)cs1,1130
4,CSc1ccc(NC(=O)CCNc2cnc3cnccn23)cc1,619
5,O=C(OCC(O)COC(=O)c1cccnc1)c1cccnc1,624
6,CCOc1ccc(CNC(=O)C2CCCN(S(=O)(=O)c3ccc4c(ccn4CC)c3)C2)cc1 (configuration not stated),1040
7,CCN(CC)C(=O)N1CCC(Oc2ccc(-c3noc(COC)n3)cc2)C1 (configuration not stated),874
8,Cn1nc(-c2nnc(-c3ccccc3)o2)c2c1CCN(S(=O)(=O)c1ccccc1Cl)C2,938
9,O=C(Cn1c(=O)oc2ccc(Cl)cc21)N1CCc2ccccc21,898
10,c1cnn(-c2cc(N3CCCC3)ncn2)c1,678
11,Cc1cc(-c2nnc(-c3ccco3)o2)c(C)n1CC(=O)NCc1ccc(F)c(Cl)c1,882
12,CCSc1ccc(-c2cccc(NC(=O)COC)c2)nn1,762
13,CN(CC1CCOC1)C(=O)Nc1ccc(F)c(Cl)c1 (configuration not stated),709
14,CN1C(=C=Cc2cc(I)c(O)c(I)c2)C(C)(C)c2ccccc21,890
15,CCCn1cc(C(=O)Nc2ccc(N3CCOCC3)cc2)c2cccnc21,895
16,Cc1cc(C)c(C)c(S(=O)(=O)NCC2(c3cccs3)CCOCC2)c1C,1050
17,CC(=O)N[C@@H]1CCNC[C@@H]1c1nc(-c2ccccc2)no1,568
18,Cc1ccc(C)c(NC(=O)c2cnc(-c3ccc(F)cc3)nc2-c2ccncc2)c1,943
19,Cc1ccc(C)c(-c2cc3c4nn(CC(=O)NC(C)C)c(=O)n4ccn3n2)c1,856
20,Clc1ccc(-c2ccc(CNCC3CCCO3)o2)c(Cl)c1 (configuration not stated),738
21,CC(Oc1ccccc1Cl)C(=O)NCCn1cnc(-c2ccccc2)cc1=O (configuration not stated),790
